From the kinase profiling compilation of Christmann-Franck et al. (2016)

Key:
Experiment in all cases: KINOMEscan competition binding
Details in all cases: compound 10.0 µM
STK24 (human) = STK24 (human) (UniProt Q9Y6E0)
MAP3K10 (human) = MAP3K10 (human) (UniProt Q02779)
[1] = target: JAK1 JH1 catalytic (human) (UniProt P23458)
PTK2B (human) = PTK2B (human) (UniProt Q14289)
YES1 (human) = YES1 (human) (UniProt P07947)
FGR (human) = FGR (human) (UniProt P09769)
NTRK2 (human) = NTRK2 (human) (UniProt Q16620)
CaMK1 (human) = CaMK1 (human) (UniProt Q14012)
Sequence of CaMK1 (human) (Q14012 whole entry, looked up): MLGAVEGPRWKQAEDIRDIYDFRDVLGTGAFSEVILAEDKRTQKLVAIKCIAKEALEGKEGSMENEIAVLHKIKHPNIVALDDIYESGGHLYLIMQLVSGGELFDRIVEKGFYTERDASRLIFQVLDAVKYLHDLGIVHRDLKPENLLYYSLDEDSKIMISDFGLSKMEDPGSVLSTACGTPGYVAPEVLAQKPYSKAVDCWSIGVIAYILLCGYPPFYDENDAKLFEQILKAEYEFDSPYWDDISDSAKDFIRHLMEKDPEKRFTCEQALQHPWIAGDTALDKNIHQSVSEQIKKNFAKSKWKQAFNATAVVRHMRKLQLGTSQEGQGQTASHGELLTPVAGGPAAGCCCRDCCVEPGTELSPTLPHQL

STK38L (human) = STK38L (human) (UniProt Q9Y2H1)
Sequence of STK38L (human) (Q9Y2H1 whole entry, looked up): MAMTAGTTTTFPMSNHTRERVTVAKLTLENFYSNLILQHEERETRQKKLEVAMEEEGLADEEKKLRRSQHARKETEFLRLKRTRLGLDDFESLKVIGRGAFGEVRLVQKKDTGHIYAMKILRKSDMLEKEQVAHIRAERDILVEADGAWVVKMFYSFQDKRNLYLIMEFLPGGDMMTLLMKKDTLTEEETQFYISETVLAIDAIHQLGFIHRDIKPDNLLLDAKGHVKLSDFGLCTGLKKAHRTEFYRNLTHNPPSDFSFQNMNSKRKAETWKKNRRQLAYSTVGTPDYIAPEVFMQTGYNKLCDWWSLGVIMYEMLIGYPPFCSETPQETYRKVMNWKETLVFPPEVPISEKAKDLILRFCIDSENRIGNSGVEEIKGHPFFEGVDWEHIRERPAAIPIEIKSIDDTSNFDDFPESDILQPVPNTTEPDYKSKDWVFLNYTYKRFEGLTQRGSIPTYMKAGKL

EPHA2 (human) = EPHA2 (human) (UniProt P29317)
Sequence of EPHA2 (human) (P29317 whole entry, looked up): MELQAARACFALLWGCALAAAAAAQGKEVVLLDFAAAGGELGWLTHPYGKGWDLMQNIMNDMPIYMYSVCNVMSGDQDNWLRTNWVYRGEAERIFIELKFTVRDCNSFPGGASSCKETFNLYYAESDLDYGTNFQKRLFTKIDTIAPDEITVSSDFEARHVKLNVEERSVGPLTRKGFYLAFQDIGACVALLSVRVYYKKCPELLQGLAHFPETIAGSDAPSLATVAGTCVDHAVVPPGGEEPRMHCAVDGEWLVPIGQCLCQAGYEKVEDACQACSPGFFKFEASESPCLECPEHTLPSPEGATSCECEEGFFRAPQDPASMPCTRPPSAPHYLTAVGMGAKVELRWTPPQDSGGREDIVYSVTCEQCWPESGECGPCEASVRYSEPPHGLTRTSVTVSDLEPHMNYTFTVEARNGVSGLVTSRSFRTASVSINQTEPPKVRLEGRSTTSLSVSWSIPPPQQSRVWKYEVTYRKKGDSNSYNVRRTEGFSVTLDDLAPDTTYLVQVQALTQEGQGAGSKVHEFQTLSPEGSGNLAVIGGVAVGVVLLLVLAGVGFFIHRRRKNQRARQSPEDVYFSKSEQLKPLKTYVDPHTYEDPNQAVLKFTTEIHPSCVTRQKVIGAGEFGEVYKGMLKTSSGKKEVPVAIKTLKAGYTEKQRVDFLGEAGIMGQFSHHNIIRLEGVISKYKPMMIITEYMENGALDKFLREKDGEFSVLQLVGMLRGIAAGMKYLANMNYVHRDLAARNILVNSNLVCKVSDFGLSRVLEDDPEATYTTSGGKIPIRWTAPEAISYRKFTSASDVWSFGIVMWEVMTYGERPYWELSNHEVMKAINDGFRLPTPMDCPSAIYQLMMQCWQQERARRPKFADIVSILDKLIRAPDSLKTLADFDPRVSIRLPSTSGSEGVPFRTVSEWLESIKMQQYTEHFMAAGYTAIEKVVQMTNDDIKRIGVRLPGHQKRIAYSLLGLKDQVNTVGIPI

CDK18 (human) = CDK18 (human) (UniProt Q07002)
LCK (human) = LCK (human) (UniProt P06239)
MAP2K6 (human) = MAP2K6 (human) (UniProt P52564)
Sequence of MAP2K6 (human) (P52564 whole entry, looked up): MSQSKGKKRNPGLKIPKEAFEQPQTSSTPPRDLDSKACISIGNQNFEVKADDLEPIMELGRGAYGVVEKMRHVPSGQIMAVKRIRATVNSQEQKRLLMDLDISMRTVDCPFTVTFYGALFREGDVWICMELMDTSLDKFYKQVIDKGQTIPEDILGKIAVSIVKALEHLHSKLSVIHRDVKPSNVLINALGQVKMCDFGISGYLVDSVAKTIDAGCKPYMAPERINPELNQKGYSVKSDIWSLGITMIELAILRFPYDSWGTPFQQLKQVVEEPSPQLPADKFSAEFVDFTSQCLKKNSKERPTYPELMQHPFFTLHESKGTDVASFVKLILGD

FLT4 (human) = FLT4 (human) (UniProt P35916)
PDGFRA (human) = PDGFRA (human) (UniProt P16234)
CLK3 (human) = CLK3 (human) (UniProt P49761)
Sequence of CLK3 (human) (P49761 whole entry, looked up): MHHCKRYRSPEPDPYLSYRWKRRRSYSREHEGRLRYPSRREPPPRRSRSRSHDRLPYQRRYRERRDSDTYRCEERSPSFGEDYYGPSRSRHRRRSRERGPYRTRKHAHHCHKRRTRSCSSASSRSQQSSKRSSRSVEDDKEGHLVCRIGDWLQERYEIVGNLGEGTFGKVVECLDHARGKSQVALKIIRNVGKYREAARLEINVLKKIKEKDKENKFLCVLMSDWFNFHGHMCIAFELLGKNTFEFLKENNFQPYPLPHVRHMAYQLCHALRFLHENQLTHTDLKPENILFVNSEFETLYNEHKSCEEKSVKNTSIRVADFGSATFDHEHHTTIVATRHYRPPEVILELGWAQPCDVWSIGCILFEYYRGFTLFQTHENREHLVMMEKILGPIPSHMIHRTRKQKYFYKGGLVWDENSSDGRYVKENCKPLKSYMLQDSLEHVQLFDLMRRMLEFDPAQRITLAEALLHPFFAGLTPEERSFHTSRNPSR

MLTK (human) = MLTK (human) (UniProt Q9NYL2)
SRPK2 (human) = SRPK2 (human) (UniProt P78362)
CDK11B (human) = CDK11B (human) (UniProt P21127)
MKNK2 (human) = MKNK2 (human) (UniProt Q9HBH9)
Sequence of MKNK2 (human) (Q9HBH9 whole entry, looked up): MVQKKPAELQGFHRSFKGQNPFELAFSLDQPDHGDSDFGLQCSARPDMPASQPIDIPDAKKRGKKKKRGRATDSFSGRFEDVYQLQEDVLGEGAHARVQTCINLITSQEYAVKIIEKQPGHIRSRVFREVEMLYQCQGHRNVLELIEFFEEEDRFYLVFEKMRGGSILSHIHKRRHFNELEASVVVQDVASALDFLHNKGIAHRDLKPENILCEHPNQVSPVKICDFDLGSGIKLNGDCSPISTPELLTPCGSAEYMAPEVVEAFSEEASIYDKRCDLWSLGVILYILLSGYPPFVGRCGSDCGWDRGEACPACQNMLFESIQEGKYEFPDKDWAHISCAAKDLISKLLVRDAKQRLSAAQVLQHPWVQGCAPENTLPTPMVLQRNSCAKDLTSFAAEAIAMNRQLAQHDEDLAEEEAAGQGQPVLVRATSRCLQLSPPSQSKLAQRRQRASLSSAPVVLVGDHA

STK33 (human) = STK33 (human) (UniProt Q9BYT3)
[2] = system: EGFR (human), P00533 [752-759 del]
MUSK (human) = MUSK (human) (UniProt O15146)
Sequence of MUSK (human) (O15146 whole entry, looked up): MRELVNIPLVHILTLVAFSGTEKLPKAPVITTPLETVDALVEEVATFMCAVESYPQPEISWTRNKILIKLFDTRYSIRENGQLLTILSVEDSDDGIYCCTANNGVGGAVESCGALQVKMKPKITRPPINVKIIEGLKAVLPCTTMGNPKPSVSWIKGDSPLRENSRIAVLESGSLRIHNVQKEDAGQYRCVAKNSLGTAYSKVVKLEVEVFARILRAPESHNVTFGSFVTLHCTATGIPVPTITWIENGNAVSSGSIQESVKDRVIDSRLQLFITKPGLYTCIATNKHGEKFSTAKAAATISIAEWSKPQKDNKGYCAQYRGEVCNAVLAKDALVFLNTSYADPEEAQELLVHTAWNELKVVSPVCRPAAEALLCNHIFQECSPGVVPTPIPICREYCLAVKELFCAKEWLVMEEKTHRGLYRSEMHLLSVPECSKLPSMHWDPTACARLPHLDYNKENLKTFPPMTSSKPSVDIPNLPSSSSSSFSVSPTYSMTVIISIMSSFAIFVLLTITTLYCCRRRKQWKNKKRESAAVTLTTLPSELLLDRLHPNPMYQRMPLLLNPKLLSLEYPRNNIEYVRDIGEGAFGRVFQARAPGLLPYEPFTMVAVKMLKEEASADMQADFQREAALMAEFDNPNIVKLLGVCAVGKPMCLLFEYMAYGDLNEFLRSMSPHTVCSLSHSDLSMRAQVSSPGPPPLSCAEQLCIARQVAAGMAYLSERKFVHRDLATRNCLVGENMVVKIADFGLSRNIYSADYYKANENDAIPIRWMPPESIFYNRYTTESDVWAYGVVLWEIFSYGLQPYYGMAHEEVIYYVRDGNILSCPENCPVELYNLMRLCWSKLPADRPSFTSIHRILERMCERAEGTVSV

TLK1 (human) = TLK1 (human) (UniProt Q9UKI8)
CDK16 (human) = CDK16 (human) (UniProt Q00536)
Sequence of CDK16 (human) (Q00536 whole entry, looked up): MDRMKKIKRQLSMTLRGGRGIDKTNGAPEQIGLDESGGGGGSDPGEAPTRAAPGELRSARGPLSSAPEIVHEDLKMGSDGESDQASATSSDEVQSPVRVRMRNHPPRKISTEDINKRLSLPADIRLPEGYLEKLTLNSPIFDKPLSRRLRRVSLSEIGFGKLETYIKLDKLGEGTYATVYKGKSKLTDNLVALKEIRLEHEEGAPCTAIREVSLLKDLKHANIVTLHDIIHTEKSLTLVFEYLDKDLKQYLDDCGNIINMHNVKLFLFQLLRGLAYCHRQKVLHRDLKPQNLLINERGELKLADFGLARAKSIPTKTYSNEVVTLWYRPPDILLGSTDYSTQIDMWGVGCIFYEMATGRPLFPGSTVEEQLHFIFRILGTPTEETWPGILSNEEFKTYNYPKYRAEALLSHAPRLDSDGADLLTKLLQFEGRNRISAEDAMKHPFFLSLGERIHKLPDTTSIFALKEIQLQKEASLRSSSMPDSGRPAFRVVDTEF

[3] = system: RET (human), P07949 [V804M]
CDKL2 (human) = CDKL2 (human) (UniProt Q92772)
FGFR2 (human) = FGFR2 (human) (UniProt P21802)
SIK2 (human) = SIK2 (human) (UniProt Q9H0K1)
ROCK1 (human) = ROCK1 (human) (UniProt Q13464)
YSK4 (human) = YSK4 (human) (UniProt Q56UN5)
GRK7 (human) = GRK7 (human) (UniProt Q8WTQ7)
GRK4 (human) = GRK4 (human) (UniProt P32298)
CDKL5 (human) = CDKL5 (human) (UniProt O76039)
GRK1 (human) = GRK1 (human) (UniProt Q15835)

Sequence of YES1 (human) (P07947 whole entry, looked up): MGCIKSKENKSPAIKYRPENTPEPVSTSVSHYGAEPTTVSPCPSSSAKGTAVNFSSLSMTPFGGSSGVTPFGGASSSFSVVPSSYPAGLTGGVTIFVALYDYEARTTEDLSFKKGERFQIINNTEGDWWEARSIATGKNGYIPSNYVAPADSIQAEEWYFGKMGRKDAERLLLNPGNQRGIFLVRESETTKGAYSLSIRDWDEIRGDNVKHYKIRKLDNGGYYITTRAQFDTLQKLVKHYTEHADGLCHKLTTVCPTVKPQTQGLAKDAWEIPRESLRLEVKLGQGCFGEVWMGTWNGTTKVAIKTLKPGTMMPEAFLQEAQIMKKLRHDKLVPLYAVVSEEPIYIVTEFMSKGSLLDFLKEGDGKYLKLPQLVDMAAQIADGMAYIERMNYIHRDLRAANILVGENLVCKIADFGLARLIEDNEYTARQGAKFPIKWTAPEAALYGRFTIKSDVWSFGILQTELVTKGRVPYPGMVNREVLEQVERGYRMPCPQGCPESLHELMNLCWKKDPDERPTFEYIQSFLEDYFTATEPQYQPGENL

| kinase still bound, per cent of control (STK24 (human)) [%] | kinase still bound, per cent of control (MAP3K10 (human)) [%] | kinase still bound, per cent of control (YES1 (human)) [%] | kinase still bound, per cent of control (FGR (human)) [%] | kinase still bound, per cent of control (NTRK2 (human)) [%] | kinase still bound, per cent of control (CaMK1 (human)) [%] | kinase still bound, per cent of control (STK38L (human)) [%] | kinase still bound, per cent of control (EPHA2 (human)) [%] | kinase still bound, per cent of control (CDK18 (human)) [%] | kinase still bound, per cent of control (LCK (human)) [%] | kinase still bound, per cent of control (MAP2K6 (human)) [%] | kinase still bound, per cent of control (FLT4 (human)) [%] | kinase still bound, per cent of control (PDGFRA (human)) [%] | kinase still bound, per cent of control (MLTK (human)) [%] | kinase still bound, per cent of control (SRPK2 (human)) [%] | kinase still bound, per cent of control (CDK11B (human)) [%] | kinase still bound, per cent of control (MKNK2 (human)) [%] | kinase still bound, per cent of control (STK33 (human)) [%] | kinase still bound, per cent of control (MUSK (human)) [%] | kinase still bound, per cent of control (TLK1 (human)) [%] | SMILES | also measured |
| --- | --- | --- | --- | --- | --- | --- | --- | --- | --- | --- | --- | --- | --- | --- | --- | --- | --- | --- | --- | --- | --- |
| 100 | 18 | 1.6 | 5 | 0 | 100 | 15 | 100 | 100 | 0.3 | 29 | 29 | 100 | 100 | 24 | 100 | 100 | 1.4 | 0.95 | 100 | CNC(=O)c1ccc(Nc2cc(Nc3ccccc3S(=O)(=O)C(C)C)c3cc[nH]c3n2)nc1 | kinase still bound, per cent of control [1]: 2%; kinase still bound, per cent of control (PTK2B (human)): 0.1%; kinase still bound, per cent of control (CLK3 (human)): 2.8%; kinase still bound, per cent of control [2]: 100%; kinase still bound, per cent of control (CDK16 (human)): 22%; kinase still bound, per cent of control [3]: 1.2%; kinase still bound, per cent of control (CDKL2 (human)): 100%; kinase still bound, per cent of control (FGFR2 (human)): 25%; kinase still bound, per cent of control (SIK2 (human)): 9.8% |
| 18 | 13 | 5.2 | 7 | 100 | 100 | 100 | 100 | 100 | 0.2 | 100 | 0.1 | 2.2 | 100 | 100 | 100 | 100 | 31 | 6.2 | 100 | C=CC(=O)Nc1ccc(CN(C(=O)Nc2c(Cl)c(OC)cc(OC)c2Cl)c2cc(Nc3ccc(N4CCN(C)CC4)cc3)ncn2)cc1 | kinase still bound, per cent of control [1]: 100%; kinase still bound, per cent of control (PTK2B (human)): 100%; kinase still bound, per cent of control (CLK3 (human)): 100%; kinase still bound, per cent of control [2]: 2.3%; kinase still bound, per cent of control (CDK16 (human)): 100%; kinase still bound, per cent of control [3]: 100%; kinase still bound, per cent of control (CDKL2 (human)): 0.35%; kinase still bound, per cent of control (FGFR2 (human)): 1.9%; kinase still bound, per cent of control (SIK2 (human)): 100% |
| 7 | 100 | 100 | 100 | 100 | 100 | 100 | 100 | 100 | 22 | 100 | 6 | 100 | 100 | 100 | 100 | 100 | 100 | 100 | 100 | CCN(CC)CCCCNc1ncc2cc(-c3cc(OC)cc(OC)c3)c(NC(=O)NC(C)(C)C)nc2n1 | kinase still bound, per cent of control (PTK2B (human)): 100%; kinase still bound, per cent of control (CLK3 (human)): 100%; kinase still bound, per cent of control (CDK16 (human)): 100%; kinase still bound, per cent of control (SIK2 (human)): 100% |
| 100 | 100 | 100 | 100 | 100 | 100 | 100 | 100 | 100 | 100 | 100 | 100 | 0 | 100 | 100 | 100 | 100 | 100 | 100 | 100 | CS(=O)(=O)N1CCN(Cc2cc3nc(-c4cccc5[nH]ncc45)nc(N4CCOCC4)c3s2)CC1 | kinase still bound, per cent of control [1]: 100%; kinase still bound, per cent of control (PTK2B (human)): 100%; kinase still bound, per cent of control (ROCK1 (human)): 100%; kinase still bound, per cent of control (YSK4 (human)): 100%; kinase still bound, per cent of control (GRK7 (human)): 100%; kinase still bound, per cent of control [2]: 100%; kinase still bound, per cent of control (GRK4 (human)): 100%; kinase still bound, per cent of control [3]: 100%; kinase still bound, per cent of control (CDKL5 (human)): 100%; kinase still bound, per cent of control (CDKL2 (human)): 100%; kinase still bound, per cent of control (FGFR2 (human)): 100%; kinase still bound, per cent of control (SIK2 (human)): 100%; kinase still bound, per cent of control (GRK1 (human)): 100% |

| SMILES | kinase still bound, per cent of control (STK24 (human)) [%] | kinase still bound, per cent of control (MAP3K10 (human)) [%] | kinase still bound, per cent of control (YES1 (human)) [%] | kinase still bound, per cent of control (FGR (human)) [%] | kinase still bound, per cent of control (NTRK2 (human)) [%] | kinase still bound, per cent of control (CaMK1 (human)) [%] | kinase still bound, per cent of control (STK38L (human)) [%] | kinase still bound, per cent of control (EPHA2 (human)) [%] | kinase still bound, per cent of control (CDK18 (human)) [%] | kinase still bound, per cent of control (LCK (human)) [%] | kinase still bound, per cent of control (MAP2K6 (human)) [%] | kinase still bound, per cent of control (FLT4 (human)) [%] | kinase still bound, per cent of control (PDGFRA (human)) [%] | kinase still bound, per cent of control (MLTK (human)) [%] | kinase still bound, per cent of control (SRPK2 (human)) [%] | kinase still bound, per cent of control (CDK11B (human)) [%] | kinase still bound, per cent of control (MKNK2 (human)) [%] | kinase still bound, per cent of control (STK33 (human)) [%] | kinase still bound, per cent of control (MUSK (human)) [%] | kinase still bound, per cent of control (TLK1 (human)) [%] | also measured |
| --- | --- | --- | --- | --- | --- | --- | --- | --- | --- | --- | --- | --- | --- | --- | --- | --- | --- | --- | --- | --- | --- |
| Cc1n[nH]c2ccc(-c3cncc(OC[C@@H](N)Cc4c[nH]c5ccccc45)c3)cc12 | 100 | 100 | 100 | 100 | 100 | 33 | 100 | 100 | 28 | 100 | 100 | 100 | 100 | 100 | 22 | 100 | 13 | 2.6 | 100 | 100 | kinase still bound, per cent of control [1]: 100%; kinase still bound, per cent of control (CLK3 (human)): 0%; kinase still bound, per cent of control (CDK16 (human)): 16%; kinase still bound, per cent of control [3]: 10%; kinase still bound, per cent of control (CDKL2 (human)): 5.2%; kinase still bound, per cent of control (FGFR2 (human)): 100%; kinase still bound, per cent of control (SIK2 (human)): 100% |
